Patent publication US20260116928A1, “COMPOSITIONS AND PARTICLES FOR PAYLOAD DELIVERY” (Thornhill Therapeutics, Inc., priority 2019, published 2026)

Test: Glucose challenge model
Format: in vivo, male CD1 mice
Settings: mice, IP glucose challenge; 10 μg IP injection
From the text: The glucose challenge model used to test SEQ ID NO: 70-Exenatide was designed to examine the capacity of a GLP-1-like activity to enhance the rate of recovery from a glucose excursion.
The male CD1 mice used in the glucose challenge test were 9-16 weeks of age. To minimize stress due to handling, animals were acclimatized to the environment, blood sampling, and dosing procedures for 1 week prior to the start of experiments, as plasma glucose can be responsive to handling stress. Mice were fasted for 18 h prior to study. […] Blood samples were taken at t=0, 15, 30, 45, 60 min; 2, 3, and 4 hr. Blood glucose measurements were made using 5 μL blood sample taken from the tail with a commercial glucometer that was calibrated with glucose standards prior to the start of the study.

In the case of Exenatide (1-40)-Gly, the “time at which correction of the blood glucose excursion began” value is reported as 15 min and the “time by which the correction profile was completed” value is reported as ≤ 120 min.
